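Values below derive from 48-hour exposures of cells grown in 96-well plates, with endpoints linearly interpolated between the two concentrations bracketing the appropriate inhibition level. At the GI50, growth is halved. TGI denotes the concentration required for complete inhibition of growth.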

Among the test systems are SK-MEL-2 melanoma; SN12C renal; K-562 leukemia; SW-620 colon; 786-0 renal; MDA-MB-231 breast; SF-295 CNS; IGROV1 ovarian; MDA-N; HT29 colon; OVCAR-4 ovarian; SNB-75 CNS; NCI-H522 lung; A498 renal; SR leukemia; BT-549 breast.
Holding throughout (assay): NCI tumour cell line growth inhibition, 48 h

As for `CCOC(=O)NC(NC(C)CC)(C(F)(F)F)C(F)(F)F` (stereo not given), the TGI with SK-MEL-2 melanoma, in the experiment with SN12C renal, with K-562 leukemia, with SW-620 colon, with 786-0 renal and with MDA-MB-231 breast was over 100 µM each time. In addition, the TGI in the experiment with SF-295 CNS, in the experiment with IGROV1 ovarian, in the experiment with MDA-N, in the experiment on HT29 colon, in the experiment on OVCAR-4 ovarian and with SNB-75 CNS was over 100 µM throughout. Further, the TGI in the experiment on NCI-H522 lung, in the experiment on A498 renal and in the experiment with SR leukemia was over 100 µM in each case.
On to `O=S(CCCl)c1c2ccccc2nc2ccccc12` (stereo not given), for which the TGI was over 100 µM in the experiment on SK-MEL-2 melanoma; 88.7 µM in the experiment with SN12C renal; over 100 µM in the experiment on K-562 leukemia; over 100 µM with SW-620 colon; over 100 µM with 786-0 renal; over 100 µM in the experiment with MDA-MB-231 breast. For the same compound, the TGI in the experiment with SF-295 CNS, with IGROV1 ovarian, with MDA-N, in the experiment on HT29 colon, in the experiment on OVCAR-4 ovarian and in the experiment on SNB-75 CNS was over 100 µM each time. The TGI was 35.6 µM in the experiment on NCI-H522 lung, over 100 µM in the experiment on A498 renal and over 100 µM in the experiment with SR leukemia.
Turning to `CC(CO)C1=CC(C#CCOCc2ccccc2)N(C(=O)Oc2ccccc2)c2ccccc21` (stereo not given), the TGI is over 100 µM in the experiment with SK-MEL-2 melanoma; 68.6 µM with SN12C renal; over 100 µM with K-562 leukemia; over 100 µM in the experiment with SW-620 colon; over 100 µM with 786-0 renal; over 100 µM with MDA-MB-231 breast. In addition, the TGI with SF-295 CNS was 71.9 µM; in the experiment on IGROV1 ovarian, over 100 µM; in the experiment with MDA-N, over 100 µM; in the experiment with HT29 colon it was over 100 µM; in the experiment with OVCAR-4 ovarian it was 20.7 µM; with SNB-75 CNS it was over 100 µM. The TGI was 37.3 µM in the experiment with NCI-H522 lung, 24.2 µM in the experiment on A498 renal and over 100 µM in the experiment on SR leukemia.
Take `CCN(CC)CCCNc1nc2ccccc2c2[nH]c3ccc(OC)cc3c12`: the TGI stood at 3.16 µM in the experiment on SK-MEL-2 melanoma; 7.1 µM with SN12C renal; 3.44 µM in the experiment with K-562 leukemia; 2.37 µM in the experiment on SW-620 colon; 2.41 µM with 786-0 renal; 3.29 µM in the experiment on MDA-MB-231 breast. Besides, the TGI with SF-295 CNS was 2.39 µM; in the experiment on IGROV1 ovarian, 3.72 µM; with MDA-N, 2.99 µM; in the experiment on HT29 colon, 2.05 µM; in the experiment on OVCAR-4 ovarian, 2.64 µM; in the experiment with SNB-75 CNS, 3.35 µM. Further, the TGI in the experiment on NCI-H522 lung came to 2.88 µM; with A498 renal, 5.27 µM; with SR leukemia it was 5.95 µM.
For `O=C(OCC1OC(c2nn[nH]n2)C(OC(=O)c2ccccc2)C1OC(=O)c1ccccc1)c1ccccc1` (stereo not given), the TGI in the experiment with SK-MEL-2 melanoma, in the experiment with BT-549 breast, in the experiment with SN12C renal, with K-562 leukemia, with SW-620 colon and in the experiment with 786-0 renal was over 100 µM each time. Besides, the TGI with SF-295 CNS, in the experiment with MDA-N, in the experiment on HT29 colon, in the experiment with OVCAR-4 ovarian, in the experiment on SNB-75 CNS and in the experiment on A498 renal was over 100 µM in each case.
Turning to `CCOC(=O)[C@@]12CCC(C1=O)[C@](C)(O)C[C@@H]2c1ccccc1`, the TGI in the experiment with SK-MEL-2 melanoma is over 100 µM; with BT-549 breast, over 100 µM; in the experiment with SN12C renal, 72.3 µM; in the experiment on K-562 leukemia it was over 100 µM; with SW-620 colon, over 100 µM; in the experiment on 786-0 renal it was 68.8 µM. The TGI in the experiment on MDA-MB-231 breast is over 100 µM; in the experiment on SF-295 CNS, over 100 µM; in the experiment with IGROV1 ovarian, over 100 µM; in the experiment with MDA-N, 16.8 µM; in the experiment with HT29 colon, 73.2 µM; in the experiment on OVCAR-4 ovarian, over 100 µM. The TGI in the experiment on SNB-75 CNS is over 100 µM; with NCI-H522 lung, 52.1 µM.
Take `O=C(/C=C/c1ccco1)CC(=O)/C=C/c1ccco1`: the TGI with SK-MEL-2 melanoma came to 22.2 µM; in the experiment on BT-549 breast, 55.4 µM; in the experiment on SN12C renal it was 17.5 µM; in the experiment with K-562 leukemia it was 26.7 µM; in the experiment on SW-620 colon, 17.1 µM; with 786-0 renal it was 19.2 µM. Besides, the TGI in the experiment on IGROV1 ovarian was over 31.6 µM; in the experiment on MDA-N it was 15 µM; in the experiment with OVCAR-4 ovarian, over 31.6 µM; in the experiment with SNB-75 CNS, over 31.6 µM; with NCI-H522 lung, 14.1 µM; with A498 renal it was 36.7 µM. For the same compound, the TGI in the experiment on SR leukemia was 17.4 µM.
Turning to `NS(=O)(=O)c1ccc(CNc2nc(-c3cccs3)nc3ccc(I)cc23)cc1`, the GI50 with SK-MEL-2 melanoma is 17.8 µM; with K-562 leukemia, 36.7 µM. Further, the TGI in the experiment on SK-MEL-2 melanoma was 32.9 µM; in the experiment with BT-549 breast, 27.8 µM; in the experiment with SN12C renal, 57.7 µM; in the experiment with K-562 leukemia it was over 100 µM; in the experiment with SW-620 colon it was 83.8 µM; in the experiment on 786-0 renal it was 37.6 µM. The TGI in the experiment on SF-295 CNS amounted to 38 µM; in the experiment on IGROV1 ovarian, 30.6 µM; in the experiment on MDA-N it was 41.9 µM; with HT29 colon, 39.2 µM; in the experiment on OVCAR-4 ovarian, 60.5 µM; in the experiment with SNB-75 CNS it was 47.1 µM. The TGI in the experiment on NCI-H522 lung was determined as 28.2 µM; in the experiment with SR leukemia, 42.8 µM.

The values above are taken from PubChem BioAssay (NCI).
